Data taken from paper PMC10610016, “New Hybrid Compounds Incorporating Natural Products as Multifunctional Agents against Alzheimer’s Disease” (Pharmaceutics, 2023).

Assays:
[1] = DPPH radical scavenging assay; type: biochemical
Procedure: The DPPH assay was carried out in a 96-microwell plate according to a previously described protocol. In brief, DPPH solution (60 µM in MeOH) was added to studied compounds or MeOH as the control. The 96-microwell plate was incubated (in the dark, at r.t. for 1 h) and the absorbance values were read at 517 nm by a SPECTROstarNano (220–1000 nm) UV–Vis spectrophotometer, Ortenberg, Germany. During the first screening, all compounds were tested ad 100 µM, then for compounds 2a–c the EC50 (effective concentration), the concentration of substrate that causes a 50% reduction in the DPPH colour, was calculated.
All experiments were made in triplicate. The percentage of the antioxidant activity (%AA) of the compounds was determined according to Equation (1):%AA = ((AbsDPPH − Abssample)/AbsDPPH) × 100(1)
AbsDPPH is the absorbance of DPPH solution, and Abssample is the absorbance of DPPH solution containing the tested compound.
Each concentration was tested in triplicate and the EC50 value was reported as the mean ± the standard error of the mean (SEM) of three independent experiments.

[2] = ABTS assay; type: biochemical
Procedure: The ABTS assay was performed according to the methods reported in literature. Briefly, 7 mM of ABTS was mixed with 2.45 mM of K2S2O8 solution, ratio 1:1, in 10 mM phosphate buffer (pH 7.4). The mixture was incubated in a dark box at r.t. for 12 h, then the stock solution was diluted until the absorbance was 0.70 ± 0.02 at 734 nm.
In a 96-well plate, 190 µL ABTS working solution and 10 µL sample solution (compounds 2a–c, 3a–c at concentration of 100 μM) were mixed and the absorbance was measured (734 nm) using a SPECTROstarNano (220–1000 nm) UV–Vis spectrophotometer, Ortenberg, Germany. Then, for compounds 2a–c the EC50 was calculated and the values were expressed in TEAC equivalents. Each concentration was tested in triplicate and the EC50 was reported as the mean ± SEM of three independent experiments.

[3] = system: rat brain homogenate; test: TBARS assay, ex vivo rat brain homogenate (Fe3+/ascorbic acid lipid peroxidation); type: biochemical; conditions: compound 1 μM
Procedure: The TBARS assay was carried on in accordance with a previously published protocol. Briefly, the rat brain, freshly isolated, was homogenized in 10% (w/v) phosphate buffer, pH 7.4. The stock solutions of compounds 2a–c and 3a–c (10 mM in DMSO) were prepared and then diluted at three different concentrations (1 mM, 100 µM, and 10 µM) with phosphate buffer pH 7.4. The experiment was performed in a falcon tube where the rat brain homogenate (100 µL) was added to FeCl3 (20 µM) and ascorbic acid (100 µM) with or without test compounds. […] All samples were heated at 37 °C and were stirred for 30 min. After this period, thiobarbituric acid (1% w/v in 0.05 N NaOH) and 25% v/v HCl were added and the falcon tubes were boiled for 10 min. Then, they were cooled in an ice-cold water bath. Finally, the extraction was executed using n-butanol (3 mL) and the tubes were centrifuged at 2000 g for 10 min. The organic portion was transferred into 96-well plates and the absorbance, at 532 nm, was recorded using a SPECTROstarNano (220–1000 nm) UV–Vis spectrophotometer, Ortenberg, Germany. The TBARS was reported as nmoles of malondialdehyde (MDA)/10 mg of rat brain tissue, by interpolation with the standard curve of 1,1,3,3-tetramethoxypropane. Data represent the mean ± SEM of the triplicate.

[4] = mean ± SEM of three independent experiments

EC50 [1, 4]: 6.1 ± 0.1 µM
EC50 [2, 4]: 13.4 ± 0.1 µM
melting point: 110 to 112 °C
Compound: O=C(/C=C/c1ccc(O)c(O)c1)NOCc1cccc(C(F)(F)F)c1 [Compound 2b, (E)-3-(3,4-dihydroxyphenyl)-N-((3-(trifluoromethyl)benzyl)oxy)acrylamide]
%AA (percentage of antioxidant activity), DPPH ([1]; compound 100 µM, DPPH 60 µM in MeOH, 1 h): 96%
TEAC (Trolox equivalent antioxidant capacity), DPPH [1, 4]: 10.9 ± 0.3 µM
radical scavenger / antioxidant activity, ABTS ([2]; compound 100 µM): 98.8%
TEAC, ABTS [2, 4]: 11.7 ± 0.01 µM
antioxidant effect on TBARS production in rat brain [3]: maintained its profile
